Data set [1] relates to hCoV-229E. The data set can be described thus: microbe, parasite or virus in culture. The data set is classed as cell-based. The following applies: for EC50: Human coronavirus 229E.
Another data set concerns SARS-CoV-2. The format is cell-based.
The subject of another data set is hCoV OC43. The data set can be described thus: Inhibition of OC43-induced cytopathogenicity in Vero-76 cells (MTT). The data set is classed as cell-based.
The nature of data set [2]: Cytotoxicity in SK-MES-1 cells (MTT). The format is cell-based. Particulars: human.
The nature of another data set: in vitro. Particulars: African green monkey (Cercopithecus aethiops).
The next data set relates to EV-A71. The data set can be described thus: Inhibition of EVA71-induced cytopathogenicity (MTT). The format is cell-based. Particulars: Enterovirus A, 50% protection from EVA71-induced cytopathogenicity.
For data set [3], the system named is OC43. The data set can be described thus: Adsorption assay (OC43, Vero-76). Particulars: virus and cells incubated at 4 °C in presence of compound.
Data set [4] can be described thus: Cytotoxicity in Caco-2 cells (MTT). The format is cell-based, human. Particulars: human, MTT; for CC50 at 24 h: Caco-2, 24 h; for CC50 at 72 h: Caco-2, 72 h.
Another data set has as its system Caco-2 cells. The data set can be described thus: Cytotoxicity in Caco-2 cells (MTT). The data set is classed as cell-based, human.
Data set [5] has as its system OC43. The data set is described as follows: OC43 virucidal activity assay. The data set is classed as cell-based, hCoV-OC43. The following applies: 0 °C and 37 °C, before cell infection.
Data set [6] relates to OC43. The data set is described as follows: OC43 yield reduction assay in Vero-76 cells. The format is cell-based, hCoV-OC43.
Data set [7] relates to OC43. The data set can be described thus: Cell pretreatment assay (OC43, Vero-76). The data set is classed as cell-based, hCoV-OC43. The following applies: 2 h pre-treatment, 50, 20, 4, 0.8 μM, viability after six days.
For another data set, the system named is Mpro of SARS-CoV-2. More on the design: method as in earlier work. Particulars: ref [41]; cited from earlier work.
The nature of data set [8]: Cytotoxicity in Vero-76 cells (MTT). The following applies: African green monkey (Cercopithecus aethiops); for CC50: Vero-76 cells.
Data set [9] relates to hCoV-229E. Also on record: method as in earlier work. Particulars: Huh-7 cells; ref [41]; read-out: EC50, replication of HCoV-229E in Huh-7 cells; cited from earlier work.
The mark [10] stands for this setting: 50% protection of SK-MES-1 cells from 229E-induced cytopathogenicity, MTT, read-out: 229E EC50.
Where [11] appears, read: Betacoronavirus 1, 50% protection of Vero-76 cells from OC43-induced cytopathogenicity, MTT, read-out: OC43 EC50.
Setting [12] is: Betacoronavirus 1, OC43, Vero 76, cinnamic acids, read-out: OC43 EC50 (Table S1).
Setting [13] is: SK-MES-1, cinnamic acids, read-out: 229E EC50 (Table S1).

Like-named read-outs stand apart in the source and are kept apart here.

As to `COc1cc(/C=C/C(=O)O)ccc1O` [ferulic acid], the “activity against 229E” value in the data set on hCoV-229E [1] is reported as “No inhibitory effect”. Besides, in the data set with SARS-CoV-2, the “activity against SARS-CoV-2 (words)” value was “No inhibitory effect”. The “activity against OC43 (words)” value with hCoV OC43 is “No inhibitory effect”.
`CCC(CC)COC(=O)[C@H](C)N[P@](=O)(OC[C@H]1O[C@@](C#N)(c2ccc3c(N)ncnn23)[C@H](O)[C@@H]1O)Oc1ccccc1` [Remdesivir, reference compound]: in data set [2], the CC50 at 48 h was greater than 100 µM. Further, the CC50 at 120 h in the data set “in vitro” was greater than 100 µM. Also, the concentration giving a half-maximal response (EC50) in the data set on hCoV-229E [1] (setting [10]) turned out to be 5 ± 1 µM.
With `O=C(/C=C/c1ccc2c(c1)OCO2)Oc1cc(O)c2c(=O)c(O)c(-c3ccc(O)c(O)c3)oc2c1` [Compound 6], the CC50 at 48 h in data set [2] is 33 µM. In the data set “in vitro”, this compound gave a CC50 at 120 h of 30 µM. The 50% effective concentration (EC50) in the data set with hCoV-229E [1] (setting [10]) was greater than 33 µM; in the data set with hCoV OC43 (setting [11]) it was 2.4 ± 0.56 µM.
`O=C(/C=C/c1ccccc1O)Oc1cc(O)c2c(=O)c(O)c(-c3ccc(O)c(O)c3)oc2c1` [Compound 4] showed a CC50 at 120 h in “in vitro” of 78 µM. In addition, the EC50 in the data set with hCoV OC43 (setting [11]) is greater than 78 µM.
As for `O=C(O)/C=C/c1cccc(O)c1` [Compound A5], in the data set “in vitro”, the CC50 was greater than 100 µM. For the same compound, the 50% effective concentration (EC50) in the data set with hCoV OC43 (setting [12]) was greater than 100 µM.
For `COc1ccc(/C=C/C(=O)O)cc1OC` [Compound A1], the CC50 in the data set “in vitro” is greater than 100 µM. Also, in the data set with hCoV OC43 (setting [12]), the EC50 was greater than 100 µM.
`COc1ccc(/C=C/C(=O)Oc2cc(O)c3c(=O)c(O)c(-c4ccc(O)c(O)c4)oc3c2)cc1OC` [Compound 1] gave a CC50 at 120 h in the data set “in vitro” of 54.7 µM. For the same compound, the “activity against SARS-CoV-2 (words)” value in the data set on SARS-CoV-2 was “no activity”. Also, the “activity against OC43 (words)” value in the data set with hCoV OC43 is recorded as “no activity”. In addition, the concentration giving a half-maximal response (EC50) with hCoV OC43 (setting [11]) was greater than 54.7 µM.
In “in vitro”, `COc1cc(/C=C/C(=O)O)ccc1O` [Compound A2] gave a CC50 greater than 100 µM. In addition, the EC50 with hCoV OC43 (setting [12]) is greater than 100 µM.
With `O=C(/C=C/c1ccc(O)c(O)c1)Oc1cc(O)c2c(=O)c(O)c(-c3ccc(O)c(O)c3)oc2c1` [Compound 8], the CC50 at 48 h in data set [2] was greater than 100 µM. Also, in “in vitro”, the CC50 at 120 h turned out to be 70 µM. For the same compound, the EC50 was greater than 100 µM in the data set with hCoV-229E [1] (setting [10]) and 15 µM in the data set with hCoV OC43 (setting [11]). In the data set on SARS-CoV-2, the “activity against SARS-CoV-2 (words)” value is given as “showed activity”.
Take `O=C(/C=C/c1ccc(O)cc1)Oc1cc(O)c2c(=O)c(O)c(-c3ccc(O)c(O)c3)oc2c1` [Compound 3]: the CC50 at 120 h in “in vitro” was 60 µM. Further, the “activity against OC43 (words)” value in the data set with hCoV OC43 was “no evidence of activity”. In addition, in the data set with hCoV OC43 (setting [11]), the EC50 is greater than 60 µM.
The compound `O=C(O)/C=C/c1ccccc1O` [Compound A4] had a CC50 in “in vitro” greater than 100 µM. In the data set with hCoV OC43 (setting [12]), the concentration for a half-maximal effect (EC50) was greater than 100 µM.
In “in vitro”, `COc1cc(/C=C/C(=O)Oc2cc(O)c3c(=O)c(O)c(-c4ccc(O)c(O)c4)oc3c2)ccc1O` [Compound 2] yielded a CC50 at 120 h of 11.4 µM. The concentration for a half-maximal effect (EC50) in the data set with hCoV OC43 (setting [11]) is greater than 11.4 µM.
On to `COc1cc(/C=C/C(=O)Oc2cc(O)c3c(=O)c(O)c(-c4ccc(O)c(O)c4)oc3c2)cc(OC)c1O` [Compound 7], for which the EC50 in the data set on EV-A71 was greater than 100 µM; in the data set with hCoV-229E [1] (setting [10]), greater than 100 µM; in the data set with hCoV OC43 (setting [11]), 6.5 ± 0.7 µM. In [2], this compound returned a CC50 at 48 h greater than 100 µM. The “block of OC43 viral binding (adsorption)” value with OC43 [3] is “efficiently able to block OC43 viral binding”. For the same compound, the CC50 at 24 h (in data set [4]; in “in vitro”) was greater than 100 µM throughout. Moreover, the CC50 at 72 h in data set [4] was 70 µM; in “in vitro” it was greater than 100 µM. In addition, the “cytotoxicity against Caco-2 cells” value with Caco-2 cells (24 h) is “No relevant cytotoxicity”; in the data set with Caco-2 cells (72 h), “a slight increase”. In the data set “in vitro”, this compound came in with a CC50 at 120 h of 100 µM. Besides, the “virus titers of treated vs untreated samples (virucidal activity)” value in the data set on OC43 [5] is “did not significantly differ”. In addition, in the data set on SARS-CoV-2, the “activity against SARS-CoV-2 (words)” value is reported as “showed activity”. The compound also came in with a selectivity index in the data set with hCoV OC43 of 15. Also, the “reduction in the OC43 titer” value in the data set with OC43 [6] (4 µM, Vero-76, m.o.i. 0.1) is 2 logs. In addition, the “reduction in the viral titer” value with OC43 [6] (50, 20, 4 and 0.8 µM, Vero-76) is on record as “significant dose-dependent reduction”. Also, the “protection of pre-treated Vero-76 monolayers from OC43 infection” value with OC43 [7] is recorded as “failed to inhibit OC43 infection”.
`O=c1c(O)c(-c2ccc(O)c(O)c2)oc2cc(O)cc(O)c12` [Quercetin, reference compound]: the EC50 is greater than 100 µM in the data set on EV-A71, 51 µM in the data set on hCoV-229E [1] (setting [10]), greater than 20 µM in the data set on hCoV OC43 (setting [11]) and 4.88 µM in the data set with hCoV-229E [9]. In addition, the CC50 at 48 h in data set [2] (mock-infected SK-MES-1 cells, 48 h post-treatment, MTT, read-out: SK-MES-1 CC50) is greater than 100 µM. Besides, the CC50 at 24 h was 88.7 µM in data set [4] and greater than 100 µM in data set [8]. Besides, the CC50 at 72 h was found to be 61 µM in [4] and 100 µM in data set [8]. Besides, the 50% inhibitory concentration (IC50) in the data set on Mpro of SARS-CoV-2 was 6.79 µM. Moreover, the “cytotoxicity against Vero-76 cells” value with Vero-76 cells is on record as “No cytotoxicity was detected”. The “activity against SARS-CoV-2 (words)” value was “no activity” in the data set on SARS-CoV-2 and “no anti-beta coronavirus activity” in the data set with SARS-CoV-2 (listed as quercetin). Besides, the CC50 at 120 h in data set [8] came out at 20 µM. In addition, the “activity against OC43 (words)” value is listed as “no activity” in the data set with hCoV OC43 and “no anti-beta coronavirus activity” in the data set on hCoV OC43 (listed as quercetin).
In “in vitro”, `O=C(/C=C/c1cccc(O)c1)Oc1cc(O)c2c(=O)c(O)c(-c3ccc(O)c(O)c3)oc2c1` [Compound 5] registered a CC50 at 120 h of 75 µM. The EC50 with hCoV OC43 (setting [11]) is greater than 75 µM.
The compound `CCN(CCO)CCCC(C)Nc1ccnc2cc(Cl)ccc12` (stereo not drawn) [Hydroxychloroquine, reference compound] had a CC50 at 120 h in “in vitro” of 60 µM. In the data set with hCoV OC43 (setting [11]), the concentration giving a half-maximal response (EC50) amounted to 1.9 ± 0.8 µM.
Consider `O=C(O)/C=C/c1ccc(O)c(O)c1` [Compound A8], for which the CC50 (in [2]; in “in vitro”) was greater than 100 µM throughout. For the same compound, the EC50 with hCoV-229E [1] (setting [13]) and in the data set with hCoV OC43 (setting [12]) was greater than 100 µM in each case.
On to `COc1cc(/C=C/C(=O)O)cc(OC)c1O` [Compound A7, sinapic acid], for which the CC50 is greater than 100 µM in [2] (cinnamic acids, read-out: SK-MES-1 CC50 (Table S1)) and 44 µM in data set [8]. Moreover, the EC50 in the data set with hCoV-229E [1] (setting [13]) is greater than 100 µM; in the data set with hCoV OC43 (setting [12]), greater than 44 µM. The “activity against SARS-CoV-2 (words)” value in the data set on SARS-CoV-2 was “no anti-beta coronavirus activity”. In addition, in the data set with hCoV OC43, the “activity against OC43 (words)” value is given as “no anti-beta coronavirus activity”.
As to `CCOC(=O)/C=C/[C@H](C[C@@H]1CCNC1=O)NC(=O)[C@@H](CC(=O)[C@@H](NC(=O)c1cc(C)on1)C(C)C)Cc1ccc(F)cc1` [Rupintrivir, reference compound], the EC50 with EV-A71 was 0.07 µM. Also, the CC50 in the data set “in vitro” was greater than 100 µM.
With `O=C(O)/C=C/c1ccc(O)cc1` [Compound A3], in [8], the CC50 was greater than 100 µM. Further, in the data set with hCoV OC43 (setting [12]), the concentration giving a half-maximal response (EC50) was greater than 100 µM.
Turning to Dextran sulphate [reference compound], in the data set on OC43 [7], the “protection of pre-treated Vero-76 monolayers from OC43 infection” value is “failed to inhibit OC43 infection”.

The record behind these values is article PMC11125646 (Viruses, 2024).
